14 compounds from PubChem BioAssay AID248 (DTP/NCI, 2004) can be followed below.

In this experiment the test system is L1210 leukemia ip in BDF1 mice, survival T/C. As to the kind of experiment: NCI In Vivo Anticancer Drug Screen. Data for tumor model L1210 Leukemia (intraperitoneal) in B6D2F1 (BDF1) mice. To be noted: higher = longer survival. In short, it runs like this: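 Read-out is survival time, reported as the treated-group measurement over the vehicle-control measurement.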

The mark [1] stands for this setting: endpoint: mean survival time, dose: 100.0 mg/kg/injection, schedule: Q01DX009 (ip), vehicle: Klucel (hydroxypropylcellulose) (HPC).
[2] abbreviates: endpoint: mean survival time, dose: 200.0 mg/kg/injection, schedule: Q01DX009 (ip), vehicle: Klucel (hydroxypropylcellulose) (HPC).
[3] abbreviates: endpoint: mean survival time, dose: 100.0 mg/kg/injection, schedule: Q04DX003 (ip), vehicle: saline with Tween-80.
Where [4] appears, read: endpoint: mean survival time, dose: 200.0 mg/kg/injection, schedule: Q04DX003 (ip), vehicle: saline with Tween-80.
[5] abbreviates: endpoint: mean survival time, dose: 100.0 mg/kg/injection, schedule: Q01DX009 (ip), vehicle: saline with Tween-80.
Setting [6] is: endpoint: mean survival time, dose: 200.0 mg/kg/injection, schedule: Q01DX009 (ip), vehicle: saline with Tween-80.
Setting [7] is: endpoint: mean survival time, dose: 400.0 mg/kg/injection, schedule: Q01DX009 (ip), vehicle: saline with Tween-80.

Each structure is given as a SMILES string. Several values for one entry are separate records, joined by “and”; a condition that tells them apart may be missing. Equal values may be shown once. Toxic doses and inconclusive results are not listed.

In the case of `CO[C@H]1C[C@H](O[C@H]2CC[C@]3(C=O)[C@H]4CC[C@]5(C)[C@@H](C6=CC(=O)OC6)CC[C@]5(O)[C@@H]4CC[C@]3(O)C2)O[C@H](C)[C@H]1O[C@@H]1O[C@H](CO)[C@@H](O)[C@H](O)[C@H]1O`, the T/C runs as follows: (endpoint: mean survival time, dose: 0.25 mg/kg/injection, schedule: Q01DX015 (ip), vehicle: carboxymethylcellulose (CMC)) 88 % of control; (endpoint: mean survival time, dose: 0.5 mg/kg/injection, schedule: Q01DX001 (ip), vehicle: saline) 100 % of control; (endpoint: mean survival time, dose: 0.5 mg/kg/injection, schedule: Q01DX015 (ip), vehicle: carboxymethylcellulose (CMC)) 113 % of control; (endpoint: mean survival time, dose: 0.5 mg/kg/injection, schedule: Q04DX003 (ip), vehicle: saline) 100 % of control; (endpoint: mean survival time, dose: 1.0 mg/kg/injection, schedule: Q01DX015 (ip), vehicle: carboxymethylcellulose (CMC)) 89 % of control; (endpoint: mean survival time, dose: 1.0 mg/kg/injection, schedule: Q04DX003 (ip), vehicle: saline) 103 % of control. Moreover, the T/C is 97 % of control (endpoint: mean survival time, dose: 2.0 mg/kg/injection, schedule: Q01DX015 (ip), vehicle: carboxymethylcellulose (CMC)); 98 % of control (endpoint: mean survival time, dose: 4.0 mg/kg/injection, schedule: Q01DX001 (ip), vehicle: saline); 104 % of control (endpoint: median survival time, dose: 0.5 mg/kg/injection, schedule: Q01DX005 (ip), vehicle: water); 103 % of control (endpoint: median survival time, dose: 1.0 mg/kg/injection, schedule: Q01DX005 (ip), vehicle: water); 106 % of control (endpoint: median survival time, dose: 2.0 mg/kg/injection, schedule: Q01DX005 (ip), vehicle: water).

As to `CC(C)c1ccc(C(=O)Nc2ccc(OCCCc3c(N)nc(N)nc3N)cc2)cc1S(=O)(=O)F`, the T/C reads like this: (endpoint: mean survival time, dose: 100.0 mg/kg/injection, schedule: Q01DX001 (ip), vehicle: Klucel (hydroxypropylcellulose) (HPC)) 93 % of control; (endpoint: mean survival time, dose: 200.0 mg/kg/injection, schedule: Q01DX001 (ip), vehicle: Klucel (hydroxypropylcellulose) (HPC)) 98 % of control; (endpoint: mean survival time, dose: 400.0 mg/kg/injection, schedule: Q01DX001 (ip), vehicle: Klucel (hydroxypropylcellulose) (HPC)) 96 % of control.

`COC(=O)c1ccccc1NN=Nc1ccccc1Cl`: the T/C (endpoint: mean survival time, dose: 100.0 mg/kg/injection, schedule: Q01DX001 (ip), vehicle: saline) was 100 % of control; the T/C (endpoint: mean survival time, dose: 100.0 mg/kg/injection, schedule: Q04DX003 (ip), vehicle: saline) is 105 % of control; the T/C (endpoint: mean survival time, dose: 200.0 mg/kg/injection, schedule: Q01DX001 (ip), vehicle: saline) is 90 % of control; the T/C (endpoint: mean survival time, dose: 200.0 mg/kg/injection, schedule: Q04DX003 (ip), vehicle: saline) was 95 % of control; the T/C (endpoint: mean survival time, dose: 400.0 mg/kg/injection, schedule: Q01DX001 (ip), vehicle: saline) was 99 % of control; the T/C (endpoint: mean survival time, dose: 400.0 mg/kg/injection, schedule: Q04DX003 (ip), vehicle: saline) was 94 % of control.

Take `CC(C)C1=CC2=CCC3C(C)(CN)CCCC3(C)C2CC1CCN` (configuration not stated): the T/C is, setting by setting: (endpoint: mean survival time, dose: 1.25 mg/kg/injection, schedule: Q04DX003 (ip), vehicle: saline) 100 % of control; (endpoint: mean survival time, dose: 2.5 mg/kg/injection, schedule: Q04DX003 (ip), vehicle: saline) 108 % of control; (endpoint: mean survival time, dose: 5.0 mg/kg/injection, schedule: Q04DX003 (ip), vehicle: saline with Tween-80) 96 % of control; (endpoint: mean survival time, dose: 5.0 mg/kg/injection, schedule: Q04DX003 (ip), vehicle: saline) 101 % of control.

Consider `CCCCCCC(=O)N(CC(C)C)CC(C)C`, for which the T/C by setting is: (endpoint: mean survival time, dose: 100.0 mg/kg/injection, schedule: Q01DX001 (ip), vehicle: carboxymethylcellulose (CMC)) 102 % of control; (endpoint: mean survival time, dose: 100.0 mg/kg/injection, schedule: Q01DX009 (ip), vehicle: carboxymethylcellulose (CMC)) 93 % of control and 106 % of control; (endpoint: mean survival time, dose: 100.0 mg/kg/injection, schedule: Q04DX002 (ip), vehicle: carboxymethylcellulose (CMC)) 97 % of control; (endpoint: mean survival time, dose: 100.0 mg/kg/injection, schedule: Q04DX003 (ip), vehicle: carboxymethylcellulose (CMC)) 109 % of control; (endpoint: mean survival time, dose: 200.0 mg/kg/injection, schedule: Q01DX001 (ip), vehicle: carboxymethylcellulose (CMC)) 100 % of control; (endpoint: mean survival time, dose: 200.0 mg/kg/injection, schedule: Q01DX009 (ip), vehicle: carboxymethylcellulose (CMC)) 104 % of control and 90 % of control. Also, the T/C reads like this: (endpoint: mean survival time, dose: 200.0 mg/kg/injection, schedule: Q04DX002 (ip), vehicle: carboxymethylcellulose (CMC)) 102 % of control; (endpoint: mean survival time, dose: 200.0 mg/kg/injection, schedule: Q04DX003 (ip), vehicle: carboxymethylcellulose (CMC)) 102 % of control; (endpoint: mean survival time, dose: 400.0 mg/kg/injection, schedule: Q01DX001 (ip), vehicle: carboxymethylcellulose (CMC)) 90 % of control; (endpoint: mean survival time, dose: 400.0 mg/kg/injection, schedule: Q04DX002 (ip), vehicle: carboxymethylcellulose (CMC)) 100 % of control; (endpoint: mean survival time, dose: 400.0 mg/kg/injection, schedule: Q04DX003 (ip), vehicle: carboxymethylcellulose (CMC)) 100 % of control.

Turning to `CCc1c(C#N)oc2ccc(O)cc12`, the T/C is 96 % of control under setting [1]; 95 % of control (endpoint: mean survival time, dose: 100.0 mg/kg/injection, schedule: Q04DX002 (ip), vehicle: Klucel (hydroxypropylcellulose) (HPC)); 91 % of control under setting [2]; 101 % of control (endpoint: mean survival time, dose: 200.0 mg/kg/injection, schedule: Q04DX002 (ip), vehicle: Klucel (hydroxypropylcellulose) (HPC)); 95 % of control (endpoint: mean survival time, dose: 400.0 mg/kg/injection, schedule: Q04DX002 (ip), vehicle: Klucel (hydroxypropylcellulose) (HPC)).

In the case of `CN(C)c1ccc(/C=C2/CCCCC2=O)cc1`, the T/C was 98 % of control under setting [1]; 93 % of control (endpoint: mean survival time, dose: 100.0 mg/kg/injection, schedule: Q04DX003 (ip), vehicle: Klucel (hydroxypropylcellulose) (HPC)); 109 % of control under setting [2]; 103 % of control (endpoint: mean survival time, dose: 200.0 mg/kg/injection, schedule: Q04DX003 (ip), vehicle: Klucel (hydroxypropylcellulose) (HPC)); 96 % of control (endpoint: mean survival time, dose: 400.0 mg/kg/injection, schedule: Q01DX009 (ip), vehicle: Klucel (hydroxypropylcellulose) (HPC)); 103 % of control (endpoint: mean survival time, dose: 400.0 mg/kg/injection, schedule: Q04DX003 (ip), vehicle: Klucel (hydroxypropylcellulose) (HPC)).

`CCNC(=S)NNc1ccccc1`: the T/C under setting [3] was 100 % of control and the T/C under setting [4] was 96 % of control.

Regarding `COc1ccccc1-c1c(C(=O)O)cccc1[N+](=O)[O-]`, the T/C under setting [5] is 98 % of control, the T/C under setting [6] was 106 % of control and the T/C under setting [7] is 101 % of control.

With `COC(=O)C1=C(C(=O)OC)C2(C)C=CC1O2` (configuration not stated), the T/C reads like this: (endpoint: mean survival time, dose: 3.12 mg/kg/injection, schedule: Q01DX009 (ip), vehicle: saline with Tween-80) 98 % of control; (endpoint: mean survival time, dose: 6.25 mg/kg/injection, schedule: Q01DX009 (ip), vehicle: saline with Tween-80) 93 % of control; (endpoint: mean survival time, dose: 12.5 mg/kg/injection, schedule: Q01DX009 (ip), vehicle: saline with Tween-80) 98 % of control and 105 % of control; (endpoint: mean survival time, dose: 25.0 mg/kg/injection, schedule: Q01DX009 (ip), vehicle: saline with Tween-80) 106 % of control.

Consider `N#CCCN(CCc1ccccn1)C(=S)Nc1cccc(C(F)(F)F)c1`, for which the T/C runs as follows: (endpoint: mean survival time, dose: 100.0 mg/kg/injection, schedule: Q01DX009 (ip), vehicle: other) 110 % of control; (endpoint: mean survival time, dose: 200.0 mg/kg/injection, schedule: Q01DX009 (ip), vehicle: other) 98 % of control; (endpoint: mean survival time, dose: 400.0 mg/kg/injection, schedule: Q01DX009 (ip), vehicle: other) 110 % of control.

For the compound `NC(CSC(c1ccccc1)(c1ccccc1)c1ccc(Cl)cc1)C(=O)O` (configuration not stated), the T/C runs as follows: (endpoint: mean survival time, dose: 1.3 mg/kg/injection, schedule: Q01DX009 (ip), vehicle: saline) 100 % of control; (endpoint: mean survival time, dose: 2.0 mg/kg/injection, schedule: Q01DX009 (ip), vehicle: saline) 118 % of control; (endpoint: mean survival time, dose: 6.25 mg/kg/injection, schedule: Q01DX009 (ip), vehicle: acetone) 151 % of control; (endpoint: mean survival time, dose: 12.5 mg/kg/injection, schedule: Q01DX009 (ip), vehicle: acetone) 156 % of control; (endpoint: mean survival time, dose: 12.5 mg/kg/injection, schedule: Q01DX009 (ip), vehicle: other) 163 % of control.

Consider `CCN(CC)c1ccc(NC(=O)Nc2ccccc2C)cc1`, for which the T/C is 93 % of control under setting [5]; 100 % of control under setting [3]; 90 % of control under setting [6]; 94 % of control under setting [4]; 94 % of control under setting [7]; 94 % of control (endpoint: mean survival time, dose: 400.0 mg/kg/injection, schedule: Q04DX003 (ip), vehicle: saline with Tween-80).

As for `NC1(CSS(=O)(=O)O)CCN1` (configuration not stated), the T/C is 106 % of control (endpoint: mean survival time, dose: 10.0 mg/kg/injection, schedule: Q04DX002 (ip), vehicle: saline); 98 % of control (endpoint: mean survival time, dose: 20.0 mg/kg/injection, schedule: Q04DX002 (ip), vehicle: saline); 109 % of control (endpoint: mean survival time, dose: 40.0 mg/kg/injection, schedule: Q04DX002 (ip), vehicle: saline).
